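Results reflect a 48-hour exposure of cells in 96-well plates to compound at five concentrations. GI50 = concentration required for 50% inhibition of growth. TGI: concentration producing complete growth inhibition.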
What was measured:
Test in all cases: DTP human tumour cell line panel, 48 h
[1] = system: SK-MEL-5 melanoma
[2] = system: HL-60(TB) leukemia
[3] = system: OVCAR-5 ovarian
[4] = system: SF-268 CNS
[5] = system: NCI-H460 lung
[6] = system: HOP-62 NSCLC
[7] = system: DU-145 prostate
[8] = system: CAKI-1 renal
[9] = system: MOLT-4 leukemia
[10] = system: RXF 393 renal
[11] = system: SNB-75 CNS
[12] = system: MDA-MB-231 breast
[13] = system: NCI-H522 lung
[14] = system: HT29 colon
[15] = system: HCT-116 colon
[16] = system: CCRF-CEM leukemia
[17] = system: OVCAR-4 ovarian
[18] = system: ACHN renal
[19] = system: SF-295 CNS
[20] = system: RPMI-8226 leukemia
[21] = system: PC-3 prostate
[22] = system: HCC-2998 colon
[23] = system: MDA-MB-435
[24] = system: BT-549 breast
[25] = system: SNB-19 CNS
[26] = system: SW-620 colon
[27] = system: SF-539 CNS
[28] = system: OVCAR-8 ovarian
[29] = system: A498 renal
[30] = system: SK-MEL-28 melanoma
[31] = system: IGROV1 ovarian
[32] = system: 786-0 renal
[33] = system: SK-MEL-2 melanoma
[34] = system: SN12C renal
[35] = system: HCT-15 colon
[36] = system: SR leukemia
[37] = system: KM12 colon
[38] = system: UACC-257 melanoma
[39] = system: MALME-3M melanoma
[40] = system: NCI/ADR-RES ovarian
[41] = system: M14 melanoma
[42] = system: UACC-62 melanoma
[43] = system: HOP-92 NSCLC
[44] = system: U251 CNS
[45] = system: HS 578T breast
[46] = system: SK-OV-3 ovarian
[47] = system: OVCAR-3 ovarian
[48] = system: MCF7 breast
[49] = system: K-562 leukemia
[50] = system: TK-10 renal
[51] = system: A549 NSCLC
[52] = system: T-47D breast
[53] = system: NCI-H226 lung
[54] = system: LOX IMVI melanoma
[55] = system: COLO 205 colon
[56] = system: EKVX NSCLC
[57] = system: UO-31 renal

Cc1cc2nc3c4cc(Cl)ccc4n(CC(=S)NCCN(C)C)c3nc2cc1C
GI50 [1]: 4.09 µM | TGI [1]: 14 µM | GI50 [2]: 1.87 µM | TGI [2]: 3.99 µM | GI50 [3]: 4.87 µM | TGI [3]: 17.6 µM | GI50 [4]: 5.56 µM | TGI [4]: 21.1 µM | GI50 [5]: 1.81 µM | TGI [5]: 3.35 µM | GI50 [6]: 6.68 µM | TGI [6]: 21.6 µM | GI50 [7]: 2.64 µM | TGI [7]: 6.99 µM | GI50 [8]: 2.84 µM | TGI [8]: 14.4 µM | GI50 [9]: 1.97 µM | TGI [9]: 4.29 µM | GI50 [10]: 3.56 µM | TGI [10]: 14.4 µM | GI50 [11]: 11.2 µM | TGI [11]: 24.7 µM | GI50 [12]: 1.82 µM | TGI [12]: 3.63 µM | GI50 [13]: 1.72 µM | TGI [13]: 3.47 µM | GI50 [14]: 1.78 µM | TGI [14]: 3.36 µM | GI50 [15]: 1.73 µM | TGI [15]: 3.17 µM | GI50 [16]: 2.36 µM | TGI [16]: 6.17 µM | GI50 [17]: 2.81 µM | TGI [17]: 10.2 µM | GI50 [18]: 1.6 µM | TGI [18]: 2.95 µM | GI50 [19]: 5.56 µM | TGI [19]: 18.2 µM | GI50 [20]: 2.75 µM | TGI [20]: 7.49 µM | GI50 [21]: 1.83 µM | TGI [21]: 4.84 µM | GI50 [22]: 1.66 µM | TGI [22]: 3.09 µM | GI50 [23]: 1.89 µM | TGI [23]: 3.53 µM | GI50 [24]: 13.3 µM | TGI [24]: 26.5 µM | GI50 [25]: 5.87 µM | TGI [25]: 19.9 µM | GI50 [26]: 1.68 µM | TGI [26]: 3.15 µM | GI50 [27]: 3.33 µM | TGI [27]: 12.2 µM | GI50 [28]: 1.75 µM | TGI [28]: 3.39 µM | GI50 [29]: 17.1 µM | TGI [29]: 31.3 µM | GI50 [30]: 1.81 µM | TGI [30]: 3.43 µM | GI50 [31]: 3.53 µM | TGI [31]: 15.6 µM | GI50 [32]: 1.64 µM | TGI [32]: 3.2 µM | GI50 [33]: 14.2 µM | TGI [33]: 27.8 µM | GI50 [34]: 2.07 µM | TGI [34]: 4.97 µM | GI50 [35]: 1.75 µM | TGI [35]: 3.17 µM | GI50 [36]: 2.46 µM | TGI [36]: 6.23 µM | GI50 [37]: 2.73 µM | TGI [37]: 8.29 µM | GI50 [38]: 3.29 µM | TGI [38]: 11.9 µM | GI50 [39]: 1.86 µM | TGI [39]: 4.16 µM | GI50 [40]: 1.87 µM | TGI [40]: 3.7 µM | GI50 [41]: 1.64 µM | TGI [41]: 3.12 µM | GI50 [42]: 1.81 µM | TGI [42]: 3.62 µM | GI50 [43]: 1.79 µM | TGI [43]: 8.06 µM | GI50 [44]: 1.71 µM | TGI [44]: 3.17 µM | GI50 [45]: 11 µM | TGI [45]: 30.8 µM | GI50 [46]: 11.8 µM | TGI [46]: 24.1 µM | GI50 [47]: 2.05 µM | TGI [47]: 4.67 µM | GI50 [48]: 1.19 µM | TGI [48]: 2.51 µM | GI50 [49]: 2.07 µM | TGI [49]: 5.21 µM | GI50 [50]: 11.4 µM | TGI [50]: 24.2 µM | GI50 [51]: 1.75 µM | TGI [51]: 3.52 µM | GI50 [52]: 5.11 µM | TGI [52]: 20.2 µM | GI50 [53]: 10.5 µM | TGI [53]: 24.9 µM | GI50 [54]: 0.241 µM | TGI [54]: 1.77 µM | GI50 [55]: 1.78 µM | TGI [55]: 3.49 µM | GI50 [56]: 3.07 µM | TGI [56]: 11.8 µM | GI50 [57]: 1.07 µM | TGI [57]: 2.53 µM

Source: PubChem BioAssay (NCI)
